Laboratory results taken from PubChem BioAssay AID179 (DTP/NCI, 2004).
Active and inactive are the calls of the source.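 The calls were made as follows: active = compounds giving half or more protection of infected cells from virus-caused growth loss, again on retest; inactive = the rest.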

Tested on: CEM cells HIV-1 protection, formazan growth assay
Assay: NCI AIDS Antiviral Assay
Conditions: for IC50: measured here: growth of uninfected CEM cells
Summary of the method: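 CEM (human) cells, HIV-1 infected vs uninfected, 5-point dosing, formazan growth read-out. Retest threshold 50% protection.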

SMILES	EC50 [µM]	IC50 [µM]	outcome
CCC(=O)N1C(=O)C(C)C23c4cccc([N+](=O)[O-])c4C(=O)N2CCCN13 (stereo unspecified)	> 692	> 692	
COC(=O)NC1=Nc2ccccc2N(C(=O)Oc2ccccc2)S1	> 75.9	9.33	
O=C(NCCCN1CCN(CCCNC(=O)c2cc(-c3ccccc3)nc3ccccc23)CC1)c1cc(-c2ccccc2)nc2ccccc12	> 20	2.4	
CC1(CO)NC(C(=O)O)Cc2c1[nH]c1ccccc21 (stereo unspecified)	> 200	> 200	
CC(=O)OC1CC2OC2(C)C2[C@H](O)C34O[C@@]3(C)C(=O)O[C@H]4/C=C(/C)C[C@H](OC(C)=O)[C@H](OC(C)=O)[C@@]12C (stereo partly specified)	> 123	75.9	
COC(=O)c1c(-c2ccccc2)cc2c3cc(-c4ccccc4)c(C(=O)OC)n3c3ccccc3n12	> 28.8	> 28.8	
Nc1ncnc2c1ncn2[C@@H]1C[C@@H]1CO	> 200	> 200	
Cc1ccc(C(CC(=O)C(C)(C)CN2CCCCC2)SCCS(=O)(=O)O)cc1 (stereo unspecified)	> 200	3.63	
CCN(CC)CC(C)C(O)(c1ccc(Cl)cc1)C1CCCCC1 (stereo unspecified)	> 200	13.2	
COc1ccc(/C=C(/C(=O)O)c2ccccc2)cc1	> 708	288	
Cc1oc2c(c1C(=O)c1ccccc1)C(=O)c1ccccc1C2=O	> 58.9	11.7	
CC(=O)Nc1ccc(S(=O)(=O)[N-]C2C(=O)c3ccccc3C(=O)C2[n+]2ccccc2)cc1 (stereo unspecified)	> 200	37.2	
COC(=O)C(CC1CC(=O)N(CCc2c[nH]c3ccccc23)C1)C(=O)OC (stereo unspecified)	> 191	> 191	
CC[C@]12C=CCN3CCC4(c5cc([C@]6(C(=O)OC)C[C@H]7CN(CCc8c6[nH]c6ccccc86)CC6CCCCC67)c(OC)cc5N(C)C4[C@@](O)(C(=O)OC)C1OC(C)=O)[C@@H]32 (stereo partly specified)	> 89.1	1.7	
Cn1cnc([N+](=O)[O-])c1Sc1n[nH]c(-c2ccc(Cl)cc2)n1	> 107	6.76	
CC(C)CCCC(C)[C@H]1CC[C@@H]2[C@H]3CC[C@H]4C[C@@H](CCC=C(c5cc(Cl)c(OCc6ccc(C(=O)O)cc6)c(C(=O)O)c5)c5cc(Cl)c(OCc6ccc(C(=O)O)cc6)c(C(=O)O)c5)CC[C@]4(C)[C@@H]3CC[C@]12C (stereo partly specified)	4.17	112	

SMILES	EC50 [µM]	IC50 [µM]	outcome
N#Cc1ccccc1NC(=O)C(=O)c1c(O)c2ccccc2oc1=O	> 741	> 741	
CCCCCCCCCCCCCCCC(=O)Nc1nc(=O)n(C2CCC(COP(=O)(O)OCC3OC(n4cc(C)c(=O)[nH]c4=O)CC3N=[N+]=[N-])O2)cc1C (stereo unspecified)	0.363	115	
FC(F)(F)C1(c2ccccc2)SCc2nc3ccccc3n21 (stereo unspecified)	77.6	105	
CCOC(=O)C(=CNc1ccc(N(C2=NCC(C)S2)c2ccc(F)c(Cl)c2)cc1)C(=O)OCC (stereo unspecified)			inactive
Brc1cnc2n[nH]nc2c1	> 912	525	
C/C(=N/NC(=S)N1CCN(C(=S)N/N=C(/C)c2ccccn2)CC1)c1ccccn1	> 200	3.98	
CCCCCC=C(c1cc(F)c(OC)c(C(=O)OC)c1)c1cc(F)c(OC)c(C(=O)OC)c1	> 200	115	
CCS(=O)(=O)[C@@]1(C#N)CC[C@]1(C#N)S(=O)(=O)CC	646	871	
CCCCCCCCCCCCCCCc1ccc(OCC(O)CO)cc1 (stereo unspecified)	> 19.1	> 19.1	
CCOC(=O)CN1CCC2CC1c1c([nH]c3ccccc13)C21OCCO1 (stereo unspecified)	> 200	> 200	
C/C(=C\C(=O)c1ccc(Sc2ccccc2)cc1)c1ccc(Sc2ccccc2)cc1	> 200	102	
O=C1Cc2c([nH]c3ccccc23)-c2cc(Br)ccc2N1	> 41.7	> 41.7	
CCOC(=O)N1CCC(=O)C(CNC23CC4CC(CC(C4)C2)C3)C1 (stereo unspecified)	> 4170	204	
O=C1CNc2cc(N3CCOCC3)ccc2N1	> 200	28.2	
CCOC(=O)C1C(NC(N)=O)N(Cc2ccccc2)C(=O)N1Cc1ccccc1 (stereo unspecified)	> 447	> 447	
